The text below walks through data of patent US20260085073A1, “PYRAZOLYLCARBOXAMIDE COMPOUNDS AND THEIR USE IN THERAPY” (Hotspot Therapeutics, Inc., priority 2022, published 2026).

SMILES strings stand for the structures.

By IC50 is commonly meant the concentration that inhibits the measured activity by half. Lower therefore signals greater potency in that assay.

For the test, the target named is T1, MALT1 (Homo sapiens, UniProt Q9UDY8).
T1 construct: Avi-tagged FL MALT-1 (Pharmaron, stored at −70° C.); Avi-tag
T1 sequence (Q9UDY8 1-824): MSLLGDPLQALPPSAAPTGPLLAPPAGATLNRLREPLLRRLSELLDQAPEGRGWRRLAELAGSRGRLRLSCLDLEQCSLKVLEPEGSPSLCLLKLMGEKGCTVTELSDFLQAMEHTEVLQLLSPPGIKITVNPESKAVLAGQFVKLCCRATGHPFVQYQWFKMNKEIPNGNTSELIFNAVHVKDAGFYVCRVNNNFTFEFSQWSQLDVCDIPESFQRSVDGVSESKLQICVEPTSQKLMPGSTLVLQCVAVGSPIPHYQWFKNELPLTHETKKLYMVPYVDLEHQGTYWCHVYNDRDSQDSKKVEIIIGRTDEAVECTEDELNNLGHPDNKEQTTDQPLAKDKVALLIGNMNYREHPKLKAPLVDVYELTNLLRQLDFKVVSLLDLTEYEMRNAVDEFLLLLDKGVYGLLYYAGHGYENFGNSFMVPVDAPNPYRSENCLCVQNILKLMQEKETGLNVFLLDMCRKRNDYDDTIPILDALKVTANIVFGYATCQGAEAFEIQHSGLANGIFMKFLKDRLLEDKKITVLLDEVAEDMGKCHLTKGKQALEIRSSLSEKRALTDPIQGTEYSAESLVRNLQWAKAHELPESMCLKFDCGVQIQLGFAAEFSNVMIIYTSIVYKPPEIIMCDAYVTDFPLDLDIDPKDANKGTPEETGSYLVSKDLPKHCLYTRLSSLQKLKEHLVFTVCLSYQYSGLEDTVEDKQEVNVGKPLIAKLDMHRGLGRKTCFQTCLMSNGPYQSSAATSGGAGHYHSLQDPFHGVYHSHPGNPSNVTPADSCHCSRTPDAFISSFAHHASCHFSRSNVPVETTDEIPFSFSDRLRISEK
The experiment in a line: MALT1 inhibition assay (MALT-1 Fluorogenic Peptide Cleavage Assay, Ac-LRSR-AMC substrate). The class given is biochemical. As to conditions: Avi-tagged FL MALT-1, 30 min pre-incubation, 90 min reaction at room temperature, fluorescence intensity. The procedure:
Example 71—MALT1 Inhibition Assay
Compounds were tested for ability to bind to MALT1.
Inhibition of MALT1 activity by the presence of small molecules was evaluated using MALT-1 Fluorogenic Peptide Cleavage Assay. The assay utilizes a quenched AMC-labelled peptide that contains the MALT-1 recognition sequence and cleavage site (LRSR). MALT-1 mediated cleavage of the peptide relieves the quenching and leads to an increase in fluorescence at excitation (342 nm) and emission (441 nm).
The following reagents were obtained commercially and used to prepare standard reagent formulations as further described below: N-2-hydroxyethylpiperazine-N-2-ethane sulfonic acid (HEPES) (1 M, pH 7.5, stored at 4° C.), sodium citrate (stored at RT), tris(2-carboxyethyl) phosphine hydrochloride (T-CEP) (500 mM, stored at −20° C.), ethylenediaminetetraacetic acid (EDTA) (500 mM, stored at RT), dimethylsulfoxide (DMSO, stored at RT), 3-[(3-cholamidopropyl)dimethylammonio]-1-propane sulphate (CHAPS) (stored at RT), dimethylsulfoxide (DMSO), DMSO (Fisher Scientific, stored at RT), Avi-tagged FL MALT-1 (Pharmaron, stored at −70° C.), Ac-LRSR-AMC Peptide (SM Biochemicals, stored at −20° C.), and ultrapure water (MILLI-QR).
The standard reagent formulations used in this assay were prepared and stored as follows. A 1.1 M solution of sodium citrate (161.3 g, 500 mL) was prepared and stored at room temperature. A 10% (w/v) CHAPS solution (2.0 g, 20 mL) was prepared and stored at 4° C. A 500 mM HEPES solution having pH of 6.89 was prepared from 200 mL of a 1 M HEPES solution having a pH of 7.5 using concentrated hydrochloric acid and brought to a final volume of 400 mL with MILLI-QR H2O. The substrate, 10 mM Ac-LRSR-AMC Peptide, was prepared (10 mg, 1.370 mL DMSO) and stored at −20° C.
Compounds were plated to provide a 2% DMSO final concentration using a ProxiPlate-384 Plus F Black 384-shallow well microplate. The assay-ready plates were equilibrated to room temperature. A reaction buffer (30 mL total volume) was prepared by combining HEPES (pH 6.89, 25 mM, 1.5 mL), sodium citrate (660 mM, 18.0 mL), T-CEP (1 mM, 0.06 mL), EDTA ([…], 0.06 mL), CHAPS (0.05%, 0.15 mL), DMSO (2%, 0.6 mL), and MILLI-QR H2O (10.23 mL; 9.63 mL when backfilled to 2% DMSO) followed by thorough mixing. DMSO was added only when compound plates had not been DMSO-backfilled to 2%.
MALT-1 was thawed and kept on ice. Peptide substrate was thawed on the bench under ambient conditions. A MALT-1 enzyme working stock was prepared from Avi-tagged FL MALT-1 (40 nM in a prepared reagent volume of 16.5 μL) and the reaction buffer (13.0 mL). MALT1 working stock (5 μL) was added to each well of the microplate. MALT-1 was pre-incubated with compounds for 30 minutes at room temperature.
Two substrate working stocks (Km and 10×Km) were prepared. The 1×Km substrate was prepared from Ac-LRSR-AMC Peptide (50 μM in a prepared reagent volume of 35.0 μL) and the reaction buffer (6.965 mL). The 10×Km substrate was prepared from Ac-LRSR-AMC Peptide (280 μM in a prepared reagent volume of 196.0 μL) and the reaction buffer (6.804 mL). The reaction was initiated by the addition of substrate working stock (5 μL, 50 μM) to Km plates and the addition of substrate working stock (5 μL 280 μM) to 10×Km plates. The plates were covered and incubated on the bench at room temperature for 90 minutes.
Fluorescence intensity was determined using a CLARIOstar microplate reader (BMG LABTECH) using the optimised AMC mode. Before taking readings, a 70% gain was applied on the neutral control well. Compound data were normalised to % Inhibition and used to plot sigmoidal concentration response curves to yield various parameters including IC50.
`O=C(Nc1cnc(-n2nccn2)c(Cl)c1)c1c(C(F)(F)F)c(-c2ccccc2)nn1C1CC1` [Compound I-189, N-(5-chloro-6-(2H-1,2,3-triazol-2-yl)pyridin-3-yl)-1-cyclopropyl-3-phenyl-4-(trifluoromethyl)-1H-pyrazole-5-carboxamide] registered an IC50 of less than 500 nM.

As to `Cn1nc(-c2cccc3c2OCO3)c(C(F)(F)F)c1C(=O)Nc1cnc(-n2nccn2)c(C#N)c1` [Compound I-43], the IC50 is less than 500 nM.

`Cn1nc(-c2cncc3cc[nH]c23)c(C(F)(F)F)c1C(=O)Nc1ccnc(C(F)(F)F)c1` [Compound I-115]: the IC50 is 2500 to 10000 nM.

Consider `Cn1nc(-c2ccc(C#N)cc2Cl)c(C(F)(F)F)c1C(=O)Nc1cnc(-n2nccn2)c(Cl)c1` [Compound I-36], for which the IC50 was less than 500 nM.

`Cn1nc(-c2cccc3nc[nH]c23)c(C(F)(F)F)c1C(=O)Nc1ccnc(C(F)(F)F)c1` [Compound I-10] gave an IC50 of 500 to 2500 nM.

The compound `Cn1nc(-c2nccc3ccoc23)c(C(F)(F)F)c1C(=O)Nc1ccnc(C(F)(F)F)c1` [Compound I-106] gave an IC50 of less than 500 nM.

In turn, `Cn1nc(-c2cnn3ccccc23)c(C(F)(F)F)c1C(=O)Nc1ccnc(C(F)(F)F)c1` [Compound I-69] showed an IC50 of 2500 to 10000 nM.

With `Cn1nc(-c2ccccc2)c(C(F)(F)F)c1C(=O)Nc1ccnc(C2CC2)c1` [Compound I-134], the IC50 lay within 2500 to 10000 nM.

`Cn1nc(-c2cncc3ccsc23)c(C(F)(F)F)c1C(=O)Nc1ccnc(C(F)(F)F)c1` [Compound I-230] showed an IC50 of 500 to 2500 nM.

The compound `Cn1nc(-c2cccc3ncccc23)c(C(F)(F)F)c1C(=O)Nc1cnc(-n2nccn2)c(C#N)c1` [Compound I-38] had an IC50 of 500 to 2500 nM.

`Cc1coc2c(-c3nn(C)c(C(=O)Nc4ccnc(C(F)(F)F)c4)c3C(F)(F)F)cccc12` [Compound I-84] yielded an IC50 of 500 to 2500 nM.

For `Cn1nc(-c2ccccc2)c(C(F)(F)F)c1C(=O)Nc1cc(C(F)(F)F)ccn1` [Compound I-138], the IC50 lay in the range of 500 to 2500 nM.

The compound `Cn1nc(-c2cncc3nccn23)c(C(F)(F)F)c1C(=O)Nc1ccnc(C(F)(F)F)c1` [Compound I-119] yielded an IC50 of 2500 to 10000 nM.

As for `Cn1nc(-c2cccc3[nH]ncc23)c(C(F)(F)F)c1C(=O)Nc1ccnc(C(F)(F)F)c1` [Compound I-46], the IC50 was in the range of 500 to 2500 nM.

`Cn1nc(-c2cccc3c(C#N)nccc23)c(C(F)(F)F)c1C(=O)Nc1ccnc(C(F)(F)F)c1` [Compound I-24]: the IC50 lay within 500 to 2500 nM.

`Cn1nc(-c2csc3cnccc23)c(C(F)(F)F)c1C(=O)Nc1cnc(-n2nccn2)c(C(F)(F)F)c1` [Compound I-120, N-(6-(2H-1,2,3-triazol-2-yl)-5-(trifluoromethyl)pyridin-3-yl)-1-methyl-3-(thieno[2,3-c]pyridin-3-yl)-4-(trifluoromethyl)-1H-pyrazole-5-carboxamide]: the IC50 was less than 500 nM.

In turn, `Cn1nc(-c2cccc3c2ccn3CC(=O)O)c(C(F)(F)F)c1C(=O)Nc1ccnc(C(F)(F)F)c1` [Compound I-57] displayed an IC50 of more than 10000 nM.

As to `Cn1nc(-c2cccc3c2OCC(=O)N3)c(C(F)(F)F)c1C(=O)Nc1ccnc(C(F)(F)F)c1` [Compound I-2], the IC50 fell in the range of 2500 to 10000 nM.

The compound `O=C(Nc1cnc(-n2nccn2)c(C(F)(F)F)c1)c1c(C(F)(F)F)c(-c2ccccc2)nn1C1CC1` [Compound I-190] returned an IC50 of 500 to 2500 nM.

In turn, `Cn1nc(COc2ccccc2)c(C(F)(F)F)c1C(=O)Nc1ccnc(C(F)(F)F)c1` [Compound I-208] came in with an IC50 of 2500 to 10000 nM.

Compound `Cn1nc(C(=O)Nc2ccnc(C(F)(F)F)c2)c2c1-c1ccccc1CCC2` [Compound I-253] displayed an IC50 of more than 10000 nM.

`Cn1nc(-c2cccc3c(=O)[nH]ncc23)c(C(F)(F)F)c1C(=O)Nc1ccnc(C(F)(F)F)c1` [Compound I-116] showed a concentration for half-maximal inhibition (IC50) of 500 to 2500 nM.

`Cn1nc(-c2cc(Cl)cc3nccn23)c(C(F)(F)F)c1C(=O)Nc1ccnc(C(F)(F)F)c1` [Compound I-245] came in with an IC50 of 500 to 2500 nM.

In turn, `Cn1nc(-c2ccnc3ccoc23)c(C(F)(F)F)c1C(=O)Nc1ccnc(C(F)(F)F)c1` [Compound I-14] displayed an IC50 of less than 500 nM.

Regarding `Cn1nc(-c2n[nH]c3cnccc23)c(C(F)(F)F)c1C(=O)Nc1ccnc(C(F)(F)F)c1` [Compound I-201], the IC50 was more than 10000 nM.

As for `Cn1nc(-c2ccc(F)nc2F)c(C(F)(F)F)c1C(=O)Nc1ccnc(C(F)(F)F)c1` [Compound I-83], the IC50 is 2500 to 10000 nM.

Take `COc1cc(NC(=O)c2c(C(F)(F)F)c(-c3ccccc3)nn2C)ccn1` [Compound I-287]: the IC50 is more than 10000 nM.

Consider `COc1cccc(-c2nn(C)c(C(=O)Nc3ccnc(C(F)(F)F)c3)c2C(F)(F)F)c1OC` [Compound I-52], for which the half-maximal inhibitory concentration (IC50) is 500 to 2500 nM.

In turn, `Cn1nc(-c2nccc3ccccc23)c(C(F)(F)F)c1C(=O)Nc1ccnc(C(F)(F)F)c1` [Compound I-105, 3-(isoquinolin-1-yl)-1-methyl-4-(trifluoromethyl)-N-(2-(trifluoromethyl)pyridin-4-yl)-1H-pyrazole-5-carboxamide] returned a 50% inhibitory concentration (IC50) of 500 to 2500 nM.

Turning to `[2H]C([2H])([2H])n1nc(-c2ccccc2)c(C(F)(F)F)c1C(=O)Nc1cnc(-n2nccn2)c(Cl)c1` [Compound I-165], the IC50 is less than 500 nM.

As for `Cn1nc(-c2cccc3ncoc23)c(C(F)(F)F)c1C(=O)Nc1ccnc(C(F)(F)F)c1` [Compound I-11], the IC50 was less than 500 nM.

For the compound `Cn1nc(-c2cccc3nscc23)c(C(F)(F)F)c1C(=O)Nc1ccnc(C(F)(F)F)c1` [Compound I-210, 3-(benzo[c]isothiazol-4-yl)-1-methyl-4-(trifluoromethyl)-N-(2-(trifluoromethyl)pyridin-4-yl)-1H-pyrazole-5-carboxamide], the half-inhibitory concentration (IC50) was less than 500 nM.

`Cn1nc(/C=C/c2ccccc2)c(C(F)(F)F)c1C(=O)Nc1ccnc(C(F)(F)F)c1` [Compound I-32] gave a concentration for half-maximal inhibition (IC50) of more than 10000 nM.

`Cn1nc(-c2cccc3c2OCO3)c(C(F)(F)F)c1C(=O)Nc1ccnc(C(F)(F)F)c1` [Compound I-33] had an IC50 of less than 500 nM.

Consider `Cn1nc(-c2cccc3nc(N)sc23)c(C(F)(F)F)c1C(=O)Nc1ccnc(C(F)(F)F)c1` [Compound I-117], for which the IC50 fell in the range of 500 to 2500 nM.
